Results from patent US9375419B1 (priority 2014, dated 2016).

Experiments:
[1] = system: human Norovirus replicon (GT1, HG23 cell line); assay: Primary anti-Norovirus assay, RNA hybridization (replicon); conditions: for Sl50 - CC50/EC50 / Sl90 - CC50/EC90: RNA hybridization (replicon), HG23 cells
[2] = system: human Norovirus replicon (GT1, HG23 cell line); assay: Secondary anti-Norovirus assay, quantitative polymerase chain reaction (replicon); conditions: for Sl50 - CC50/EC50 / Sl90 - CC50/EC90: quantitative PCR (replicon), HG23 cells
Herpes Simpex Virus 1 = type: cell-based
Herpes Simpex Virus 2 = type: cell-based
Human cytomegalovirus = type: cell-based
Yellow fever virus = type: cell-based
Rift valley fever virus = type: cell-based
tacaribe virus = type: cell-based
polio virus = type: cell-based
[3] = system: Venezuelan equine encephalalitis virus; type: cell-based
Vaccina virus = type: cell-based
Hepatitis B virus = type: cell-based
Hepatitis C virus = type: cell-based
Adenorovirusirus-5 = type: cell-based
[4] = Neutral red (toxicity), secondary assay; conditions: human
[5] = Cytotoxicity by neutral red dye uptake, primary assay; conditions: human

In the case of `C[C@@]1(O)[C@H](O)[C@@H](CO)O[C@H]1n1ccc(N)nc1=O` [2′C-methyl cytidine, reference compound], the “Sl50 - CC50/EC50” value [1] is reported as greater than 48, the “Sl90 - CC50/EC90” value [1] is reported as greater than 16 and the “Sl50 - CC50/EC50” value [2] is reported as greater than 50. The “Sl90 - CC50/EC90” value [2] was greater than 17.
In the case of `COc1c(C)cnc(Cn2cnc3c(Cl)cc(N)cc32)c1C` [Compound 1, 4-Chloro-1-((4-methoxy-3,5-dimethylpyridin-2-yl)methyl)-1H-benzo[d]imidazo-6-amine], the antiviral activity (Herpes Simpex Virus 1) is reported as “did not have activity”, the antiviral activity (Herpes Simpex Virus 2) is reported as “did not have activity” and the antiviral activity (Human cytomegalovirus) is reported as “did not have activity”. For the same compound, the antiviral activity (Yellow fever virus) was “did not have activity”, the antiviral activity (Rift valley fever virus) was “did not have activity” and the antiviral activity (tacaribe virus) was “did not have activity”. For the same compound, the antiviral activity (polio virus) was “did not have activity”, the antiviral activity [3] was “did not have activity” and the antiviral activity (Vaccina virus) was “did not have activity”. The antiviral activity (Hepatitis B virus) was “did not have activity”, the antiviral activity (Hepatitis C virus) was “did not have activity” and the antiviral activity (Adenorovirusirus-5) was “did not have activity”. It also gave a CC50 at 3 day [4] greater than 50 µM, a CC50 at 3 day [5] greater than 100 µM and an EC50 ([1]; Norovirus, GT1, HG23, in Homo sapiens, 72 h, read-out: EC50 - compound concentration that reduces viral replication by 50%) of 0.617 µM. The EC90 ([1]; Norovirus, GT1, HG23, in Homo sapiens, 72 h, read-out: EC90 - compound concentration that reduces viral replication by 90%) was 7.5 µM, the “Sl50 - CC50/EC50” value [1] was greater than 162 and the “Sl90 - CC50/EC90” value [1] was greater than 13. The “activity against Norovirus in the primary screen” value ([1]; primary screen) was “active”, the EC50 ([2]; Norovirus, GT1, HG23, in Homo sapiens, read-out: EC50 - compound concentration that reduces viral replication by 50%) was 1.4 µM and the EC90 ([2]; Norovirus, GT1, HG23, in Homo sapiens, read-out: EC90 - compound concentration that reduces viral replication by 90%) was 8.5 µM. For the same compound, the “Sl50 - CC50/EC50” value [2] was greater than 36, the “Sl90 - CC50/EC90” value [2] was greater than 6 and the “activity against Norovirus, data confirmed in the secondary assay” value ([2]; secondary assay) was “confirmed”.
